The values below come from patent publication US11453671B2, “Pyrazolopyrimidine inhibitors of JAK kinases and uses thereof” (Genentech, Inc., priority 2020, dated 2022).

Each structure is given as a SMILES string.

Type in all cases: cell-based
The test system of one data set is A549 cells. Description: Cell cytotoxicity assay A549 (CellTiter-Glo, 72 hours). The note with it: Table 3; 72 hours, top concentration of 50 μM; read-out: Cytotox A549 EC50. A digest of the protocol: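 A549 cells were plated overnight, then exposed for 72 h at 37 °C to a 10-point compound titration (top 50 μM, 0.5% DMSO final). Viability was read as CellTiter-Glo luminescence after 20 min at room temperature.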
A general note: ATP-based viability assays read luminescence as a measure of living cells.

The next data set deals with Jurkat clone E6-1 cells. Put plainly: Cell cytotoxicity assay Jurkat (CellTiter-Glo, 72 hours). The note with it: Table 3; 72 hours, top concentration of 50 μM; read-out: Cytotox Jurkat EC50. A digest of the protocol:
(§1)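 HEK-293T or Jurkat E6-1 cells plated at 450 cells/well were treated the next day with a 10-point titration from 50 μM top (0.5% DMSO final). After 72 h at 37° C, viability was read by CellTiter-Glo luminescence.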

For another data set, the system named is HEK-293T cells. Description: Cell cytotoxicity assay HEK-293T (CellTiter-Glo, 72 hours). The note with it: Table 3; 72 hours, top concentration of 50 μM; read-out: Cytotox K-293 EC50. A digest of the protocol:
as §1

What is called EC50 is the concentration that produces a half-maximal response. For `CC(CO)S(=O)(=O)c1ccc(OC(F)F)c(-c2nn(C)cc2NC(=O)c2cnn3cccnc23)c1` (single isomer, unassigned) [Example 24, N-[3-[2-(difluoromethoxy)-5-(2-hydroxy-1-methyl-ethyl)sulfonyl-phenyl]-1-methyl-pyrazol-4-yl]pyrazolo[1,5-a]pyrimidine-3-carboxamide], the concentration for a half-maximal effect (EC50) was no less than 50 µM in the data set on A549 cells, 37 µM in the data set with Jurkat clone E6-1 cells and 22 µM with HEK-293T cells.
